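Each compound was tested at five concentrations against cells in 96-well plates for 48 hours. TGI marks complete inhibition of growth.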

In the first assay the test system is SNB-19 CNS. Description: NCI anticancer screen, dose series, 48 h.
As to `S=c1[nH]n2c(COc3cccc(OCc4nnc5sc(=S)[nH]n45)c3)nnc2s1`, the TGI was over 100 µM.

Take `CN1CCN(CN2C(=O)C3C4C=CC(C3C2=O)C2C(=O)N(CN3CCN(C)CC3)C(=O)C42)CC1` (stereo not drawn): the TGI was over 100 µM.

Consider `CC(C)(C)c1cc(C(CO)OCCOCCO)cc(C(C)(C)C)c1O` (stereo not drawn), for which the TGI was over 100 µM.

With `COc1cc(C2SCC(=O)N2c2ccc(Cl)c(Cl)c2)cc(OC)c1OC` (stereo not drawn), the TGI is over 100 µM.

`C[C@H]1C2Cc3cc(N)ccc3[C@@]1(C)CCN2CCc1ccccc1`: the TGI was over 100 µM.

In turn, `CC(/C=N\NC(=S)N1CCCCC1)=N/NC(=S)N1CCCCC1` gave a TGI of 35.7 µM.

With `CC1C[C@]2(C)C(=O)Nc3ccccc3[C@@H]2Nc2ccccc21` (stereo partly drawn), the TGI was over 100 µM.

The compound `CCCCCC(/C=C/C1CCC(=O)C1CC#C[Si](C)(C)C)OCc1ccccc1` (stereo not drawn) registered a TGI of over 84.8 µM.

In turn, `O=S(=O)(O)c1ccc(N=Nc2ccc(N=Nc3c(O)ccc4ccccc34)cc2)cc1` registered a TGI of over 100 µM.

A further assay concerns ACHN renal. Description: NCI anticancer screen, dose series, 48 h.
The compound `CCCCn1c(C)c2c(c1C)C(=O)N(CC(O)CN1CCc3ccccc3C1)C2=O` (stereo not drawn) had a TGI of over 100 µM.

`Cc1cc(C)nc(NS(=O)(=O)c2ccc(NNC(=O)c3cccc4c(=O)c5ccccc5[nH]c34)cc2)n1` returned a TGI of over 100 µM.

As for `S=c1[nH]n2c(COc3cccc(OCc4nnc5sc(=S)[nH]n45)c3)nnc2s1`, the TGI is over 100 µM.

In turn, `CN1CCN(CN2C(=O)C3C4C=CC(C3C2=O)C2C(=O)N(CN3CCN(C)CC3)C(=O)C42)CC1` (stereo not drawn) displayed a TGI of over 100 µM.

`CC(C)(C)c1cc(C(CO)OCCOCCO)cc(C(C)(C)C)c1O` (stereo not drawn): the TGI is over 100 µM.

`COc1cc(C2SCC(=O)N2c2ccc(Cl)c(Cl)c2)cc(OC)c1OC` (stereo not drawn) came in with a TGI of over 100 µM.

Consider `C[C@H]1C2Cc3cc(N)ccc3[C@@]1(C)CCN2CCc1ccccc1`, for which the TGI was over 100 µM.

Regarding `CC(/C=N\NC(=S)N1CCCCC1)=N/NC(=S)N1CCCCC1`, the TGI was 7.16 µM.

As for `CC1C[C@]2(C)C(=O)Nc3ccccc3[C@@H]2Nc2ccccc21` (stereo partly drawn), the TGI was over 100 µM.

`CCCCCC(/C=C/C1CCC(=O)C1CC#C[Si](C)(C)C)OCc1ccccc1` (stereo not drawn) returned a TGI of 31.6 µM.

Take `O=S(=O)(O)c1ccc(N=Nc2ccc(N=Nc3c(O)ccc4ccccc34)cc2)cc1`: the TGI was over 100 µM.

The subject of a further assay is UACC-62 melanoma. Description: NCI anticancer screen, dose series, 48 h.
Regarding `CCCCn1c(C)c2c(c1C)C(=O)N(CC(O)CN1CCc3ccccc3C1)C2=O` (stereo not drawn), the TGI is over 100 µM.

On to `Cc1cc(C)nc(NS(=O)(=O)c2ccc(NNC(=O)c3cccc4c(=O)c5ccccc5[nH]c34)cc2)n1`, for which the TGI was over 100 µM.

For the compound `S=c1[nH]n2c(COc3cccc(OCc4nnc5sc(=S)[nH]n45)c3)nnc2s1`, the TGI is over 100 µM.

Compound `CN1CCN(CN2C(=O)C3C4C=CC(C3C2=O)C2C(=O)N(CN3CCN(C)CC3)C(=O)C42)CC1` (stereo not drawn) had a TGI of over 56.9 µM.

`CC(C)(C)c1cc(C(CO)OCCOCCO)cc(C(C)(C)C)c1O` (stereo not drawn): the TGI is over 100 µM.

In turn, `COc1cc(C2SCC(=O)N2c2ccc(Cl)c(Cl)c2)cc(OC)c1OC` (stereo not drawn) displayed a TGI of over 21.9 µM.

With `C[C@H]1C2Cc3cc(N)ccc3[C@@]1(C)CCN2CCc1ccccc1`, the TGI is over 100 µM.

Compound `CC(/C=N\NC(=S)N1CCCCC1)=N/NC(=S)N1CCCCC1` displayed a TGI of 5.94 µM.

The compound `CC1C[C@]2(C)C(=O)Nc3ccccc3[C@@H]2Nc2ccccc21` (stereo partly drawn) returned a TGI of 45.3 µM.

Compound `CCCCCC(/C=C/C1CCC(=O)C1CC#C[Si](C)(C)C)OCc1ccccc1` (stereo not drawn) returned a TGI of 30.6 µM.

`O=S(=O)(O)c1ccc(N=Nc2ccc(N=Nc3c(O)ccc4ccccc34)cc2)cc1` gave a TGI of over 100 µM.

A further assay concerns MDA-MB-231 breast. Description: NCI anticancer screen, dose series, 48 h.
Turning to `CCCCn1c(C)c2c(c1C)C(=O)N(CC(O)CN1CCc3ccccc3C1)C2=O` (stereo not drawn), the TGI is over 100 µM.

`Cc1cc(C)nc(NS(=O)(=O)c2ccc(NNC(=O)c3cccc4c(=O)c5ccccc5[nH]c34)cc2)n1` registered a TGI of over 100 µM.

Compound `S=c1[nH]n2c(COc3cccc(OCc4nnc5sc(=S)[nH]n45)c3)nnc2s1` showed a TGI of over 100 µM.

As for `CN1CCN(CN2C(=O)C3C4C=CC(C3C2=O)C2C(=O)N(CN3CCN(C)CC3)C(=O)C42)CC1` (stereo not drawn), the TGI is over 100 µM.

Regarding `CC(C)(C)c1cc(C(CO)OCCOCCO)cc(C(C)(C)C)c1O` (stereo not drawn), the TGI is over 100 µM.

`COc1cc(C2SCC(=O)N2c2ccc(Cl)c(Cl)c2)cc(OC)c1OC` (stereo not drawn) came in with a TGI of over 100 µM.

With `C[C@H]1C2Cc3cc(N)ccc3[C@@]1(C)CCN2CCc1ccccc1`, the TGI is over 100 µM.

With `CC(/C=N\NC(=S)N1CCCCC1)=N/NC(=S)N1CCCCC1`, the TGI turned out to be 11.1 µM.

As to `CC1C[C@]2(C)C(=O)Nc3ccccc3[C@@H]2Nc2ccccc21` (stereo partly drawn), the TGI was determined as 36 µM.

For `CCCCCC(/C=C/C1CCC(=O)C1CC#C[Si](C)(C)C)OCc1ccccc1` (stereo not drawn), the TGI stood at 54.4 µM.

Compound `O=S(=O)(O)c1ccc(N=Nc2ccc(N=Nc3c(O)ccc4ccccc34)cc2)cc1` showed a TGI of over 100 µM.

The next assay concerns MCF7 breast. Kind of assay: NCI anticancer screen, dose series, 48 h.
In the case of `CCCCn1c(C)c2c(c1C)C(=O)N(CC(O)CN1CCc3ccccc3C1)C2=O` (stereo not drawn), the TGI is over 100 µM.

`Cc1cc(C)nc(NS(=O)(=O)c2ccc(NNC(=O)c3cccc4c(=O)c5ccccc5[nH]c34)cc2)n1`: the TGI was over 100 µM.

As for `S=c1[nH]n2c(COc3cccc(OCc4nnc5sc(=S)[nH]n45)c3)nnc2s1`, the TGI is over 100 µM.

The compound `CN1CCN(CN2C(=O)C3C4C=CC(C3C2=O)C2C(=O)N(CN3CCN(C)CC3)C(=O)C42)CC1` (stereo not drawn) came in with a TGI of 72.8 µM.

Regarding `CC(C)(C)c1cc(C(CO)OCCOCCO)cc(C(C)(C)C)c1O` (stereo not drawn), the TGI was over 100 µM.

For `COc1cc(C2SCC(=O)N2c2ccc(Cl)c(Cl)c2)cc(OC)c1OC` (stereo not drawn), the TGI was over 100 µM.

The compound `C[C@H]1C2Cc3cc(N)ccc3[C@@]1(C)CCN2CCc1ccccc1` registered a TGI of 94.1 µM.

In turn, `CC(/C=N\NC(=S)N1CCCCC1)=N/NC(=S)N1CCCCC1` gave a TGI of over 45.8 µM.

In turn, `CC1C[C@]2(C)C(=O)Nc3ccccc3[C@@H]2Nc2ccccc21` (stereo partly drawn) displayed a TGI of 84.9 µM.

As for `CCCCCC(/C=C/C1CCC(=O)C1CC#C[Si](C)(C)C)OCc1ccccc1` (stereo not drawn), the TGI was found to be 44 µM.

For `O=S(=O)(O)c1ccc(N=Nc2ccc(N=Nc3c(O)ccc4ccccc34)cc2)cc1`, the TGI is over 100 µM.

Source of the values: PubChem BioAssay (NCI).
